Measurements as given in PubChem BioAssay AID328 (DTP/NCI, 2004).
“And” between values parts separate entries of the source, which are not always exact repeats. Equal entries are not always repeated. Inconclusive results and toxic doses are left out.

Tested on: BDF1 mice, P388 leukemia ip, median survival T/C
Experiment: NCI In Vivo Anticancer Drug Screen. Data for tumor model P388 Leukemia (intraperitoneal) in B6D2F1 (BDF1) mice
Conditions: endpoint: median survival time, higher = longer survival
Method in brief: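 Reported as T/C, where T is the survival measurement in dosed animals and C the same measurement in vehicle controls.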

[1] = dose: 25.0 mg/kg/injection, schedule: Q01DX009 (ip), vehicle: saline with Tween-80
[2] = dose: 50.0 mg/kg/injection, schedule: Q01DX009 (ip), vehicle: saline with Tween-80
[3] = dose: 100.0 mg/kg/injection, schedule: Q01DX009 (ip), vehicle: saline with Tween-80
[4] = dose: 200.0 mg/kg/injection, schedule: Q01DX009 (ip), vehicle: saline with Tween-80
[5] = dose: 400.0 mg/kg/injection, schedule: Q01DX009 (ip), vehicle: saline with Tween-80

## ClCCN(CCCl)c1cc(OCc2ccccc2)cc(OCc2ccccc2)c1
dose: 6.25 mg/kg/injection, schedule: Q01DX009 (ip), vehicle: water
  T/C: 91 % of control
dose: 12.5 mg/kg/injection, schedule: Q01DX009 (ip), vehicle: water
  T/C: 88 % of control
dose: 25.0 mg/kg/injection, schedule: Q01DX009 (ip), vehicle: water
  T/C: 86 % of control
dose: 25.0 mg/kg/injection, schedule: Q04DX003 (ip), vehicle: water
  T/C: 91 % of control
dose: 50.0 mg/kg/injection, schedule: Q01DX009 (ip), vehicle: water
  T/C: 88 % of control
dose: 50.0 mg/kg/injection, schedule: Q04DX003 (ip), vehicle: water
  T/C: 89 % of control
dose: 100.0 mg/kg/injection, schedule: Q01DX009 (ip), vehicle: water
  T/C: 98 % of control
dose: 100.0 mg/kg/injection, schedule: Q04DX003 (ip), vehicle: water
  T/C: 121 % of control
dose: 200.0 mg/kg/injection, schedule: Q01DX009 (ip), vehicle: water
  T/C: 92 % of control and 97 % of control
dose: 200.0 mg/kg/injection, schedule: Q04DX003 (ip), vehicle: water
  T/C: 97 % of control
dose: 400.0 mg/kg/injection, schedule: Q04DX003 (ip), vehicle: water
  T/C: 89 % of control

## COc1ccc(C2=NNC(=O)OC2c2ccccc2)cc1 (centres undefined)
[1]
  T/C: 92 % of control and 102 % of control
[2]
  T/C: 91 % of control and 96 % of control and 99 % of control
[3]
  T/C: 100 % of control and 110 % of control
[4]
  T/C: 91 % of control and 102 % of control and 105 % of control

## O=[N+]([O-])c1ccccc1SNc1ccc(NSc2ccccc2[N+](=O)[O-])cc1
dose: 3.13 mg/kg/injection, schedule: Q01DX001 (ip), vehicle: saline with Tween-80
  T/C: 104 % of control
dose: 6.25 mg/kg/injection, schedule: Q01DX001 (ip), vehicle: saline with Tween-80
  T/C: 109 % of control
dose: 12.5 mg/kg/injection, schedule: Q01DX001 (ip), vehicle: saline with Tween-80
  T/C: 95 % of control

## CC1CN1P(=O)(N1CC2CCC(CC2)C1)N1CC1C (centres undefined)
dose: 14.0 mg/kg/injection, schedule: Q01DX009 (ip), vehicle: saline with Tween-80
  T/C: 113 % of control
dose: 21.0 mg/kg/injection, schedule: Q01DX009 (ip), vehicle: saline with Tween-80
  T/C: 122 % of control
dose: 33.0 mg/kg/injection, schedule: Q01DX009 (ip), vehicle: saline with Tween-80
  T/C: 159 % of control
[2]
  T/C: 154 % of control
[3]
  T/C: 86 % of control

## Nc1nc(N)c2c(n1)CCCC2
dose: 6.25 mg/kg/injection, schedule: Q01DX009 (ip), vehicle: saline with Tween-80
  T/C: 100 % of control
dose: 12.5 mg/kg/injection, schedule: Q01DX009 (ip), vehicle: saline with Tween-80
  T/C: 90 % of control
[1]
  T/C: 90 % of control

## O=[N+]([O-])c1ccc(NC2CCCCC2)c2c1no[n+]2[O-]
dose: 6.25 mg/kg/injection, schedule: Q01DX009 (ip), vehicle: saline
  T/C: 95 % of control
dose: 12.5 mg/kg/injection, schedule: Q01DX009 (ip), vehicle: saline
  T/C: 97 % of control
dose: 25.0 mg/kg/injection, schedule: Q01DX009 (ip), vehicle: saline
  T/C: 95 % of control

## Cn1nnn2c(-c3ccccc3)nnc12
[1]
  T/C: 115 % of control
[2]
  T/C: 110 % of control
[3]
  T/C: 95 % of control

## Oc1ccccc1O.[O-]c1ccccc1[O-].[O-]c1ccccc1[O-].[O]=[V+2]
dose: 9.37 mg/kg/injection, schedule: Q01DX009 (ip), vehicle: saline
  T/C: 89 % of control
dose: 9.37 mg/kg/injection, schedule: Q04DX003 (ip), vehicle: saline
  T/C: 100 % of control
dose: 18.75 mg/kg/injection, schedule: Q01DX009 (ip), vehicle: saline
  T/C: 94 % of control
dose: 18.75 mg/kg/injection, schedule: Q04DX003 (ip), vehicle: saline
  T/C: 109 % of control
dose: 24.0 mg/kg/injection, schedule: Q04DX003 (ip), vehicle: saline
  T/C: 104 % of control
dose: 24.7 mg/kg/injection, schedule: Q04DX003 (ip), vehicle: saline
  T/C: 100 % of control
dose: 37.0 mg/kg/injection, schedule: Q04DX003 (ip), vehicle: saline
  T/C: 105 % of control
dose: 37.5 mg/kg/injection, schedule: Q01DX009 (ip), vehicle: saline
  T/C: 89 % of control
dose: 37.5 mg/kg/injection, schedule: Q04DX003 (ip), vehicle: saline
  T/C: 100 % of control
dose: 55.0 mg/kg/injection, schedule: Q04DX003 (ip), vehicle: saline
  T/C: 100 % of control
dose: 55.5 mg/kg/injection, schedule: Q04DX003 (ip), vehicle: saline
  T/C: 90 % of control

## C[C@@H]1C[C@H]2C(=CC1=O)CC[C@@H]1[C@@H]2CC[C@]2(C)[C@@H](O)CC[C@@H]12
[3]
  T/C: 100 % of control
[4]
  T/C: 109 % of control
[5]
  T/C: 109 % of control

## NC(=O)c1ncc(-c2ccc(Cl)cc2)[nH]c1=O
[3]
  T/C: 95 % of control
[4]
  T/C: 90 % of control
[5]
  T/C: 109 % of control
